Read-outs that look alike come from different tables or passages of the source.
What was measured:
HCT-116 cells [1] = experiment: Colony formation assay; type: cell-based; settings: Homo sapiens, HCT-116, 168 h, 7 days, read-out: inhibition rate of colony formation
Protocol: Exponentially growing determined HCT-116 cells (6 × 10^2 per well) were plated in 6-well plates with the Roswell Park Memorial Institute (RPMI) 1640 culture medium (Gibco, USA) containing with 10% fetal bovine serum (FBS) (Gibco, Waltham, MA, USA). After an overnight incubation, the culture medium was removed and replaced fresh medium. Then, the cells were treated with various concentrations of compound 5d (5, 10 and 15 μM) dissolved in DMSO. Some cells were treated with DMSO only as a negative control. The cells were then incubated for another 7 days. Finally, the cells were fixed with 4% paraformaldehyde for 30 min and stained with 0.1% crystal violet for 15 min at room temperature, after which, the staining was washed with PBS until the colonies were totally cleared.

HCT-116 cells [2] = experiment: Apoptosis by annexin V-FITC/propidium iodide flow cytometry; type: cell-based, human; settings: 24 h; for percentage of total apoptotic cells (UR + LR): control 5.98%
Protocol: Apoptosis was detected using an Apoptosis Detection Kit (Invitrogen, Eugene, OR, USA). In brief, cells were cultured in 6-well plates (5.0 × 10^5 cells per well) and incubated at 37 °C for 24 h. Cells with exponential growth were then incubated with compound 5d at 5 and 15 µM. Following 24 h of incubation, the cells were collected, washed twice with PBS and once with 1 × binding buffer and then stained with […] of annexin V-FITC and […] of PI 5mg/mL in 1 × binding buffer for 30 min at room temperature in the dark. Apoptotic cells were enumerated using a FACSCalibur flow cytometer with Cell Quest software (Becton–Dickinson, Franklin Lakes, NJ, USA).

HCT-116 cells [3] = experiment: Cell cycle analysis by flow cytometry (PI); type: cell-based, human; settings: 24 h; for proportion of cells in the S phase: control 18.64%; for proportion of cells in the G1 phase: control 70.67%
Protocol: HCT-116 cells were plated in 6-well plates (5.0 × 10^5 cells per well) and incubated at 37 °C for 24 h. Exponentially growing cells were then incubated with compound 5d at 5 and 15 µM. After 24 h, untreated cells (control) or cells treated with compound 5d were centrifuged at 1000 rpm for 10 min and then fixed in 70% ethanol at −20 °C for at least 24 h. The cells were subsequently resuspended in phosphate-buffered saline (PBS) containing 0.1 mg/mL of RNase A and 5 µg/mL propidium iodide (PI). The cellular DNA content for the cell cycle distribution analysis was measured by flow cytometry using a FACSCalibur flow cytometer with Cell Quest software (Becton-Dickinson, Franklin Lakes, NJ, USA), plotting at least 30,000 events per sample. The percentage of cells in the G1, S and G2 phases of the cell cycle were determined using the ModFit LT version 4.0 software package (Verity Software, Topsham, ME, USA).

[4] = MTT antiproliferative assay, HCT-116; type: cell-based, human; settings: human, HCT-116 colorectal cancer cells versus normal L02 cells; HCT-116 vs L02
Outline: (§1)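 Cells seeded at 9 × 10^3 per well, allowed 24 h to adhere, then exposed 48 h to compound at 1, 10, 50 and 100 µM. MTT added to 2 mg/mL for 4 h, formazan dissolved in DMSO, OD read at 492 nm; inhibition calculated relative to untreated and blank wells.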

[5] = MTT antiproliferative assay, HepG2; type: cell-based, human; settings: human, HepG2 liver cancer cells versus normal L02 cells; HepG2 vs L02
Outline: as §1

HepG2 cells = experiment: MTT antiproliferative assay, HepG2; type: cell-based, human
Outline: as §1

L02 cells = experiment: MTT assay on normal liver cells L02; type: cell-based; settings: Homo sapiens
Protocol: The antiproliferative activity of the target compounds against a normal L02 cell line and the three different human cancer cell lines viz. colorectal (HCT-116), liver (BEL-7402) and liver (HepG2) were evaluated using a standard MTT-based colorimetric assay. All cell lines were obtained from the Key Laboratory of Natural Resources and Functional Molecules of the Changbai Mountain (Yanbian University, Jilin, China) and maintained in Dulbecco’s modified Eagle’s medium (DMEM) and RPMI Media 1640 (RPMI1640), supplemented with 10% fetal bovine serum (FBS) at 37 °C in a humidified atmosphere containing 5% CO2.
Cells were plated in 96-well plates at appropriate densities to ensure exponential growth throughout the experimental period (9 × 10^3 cells per well) and then allowed to adhere for 24 h. Cells were then treated for 48 h with four serial concentrations (1, 10, 50 and 100 µM) of each compound. […] After 48 h of incubation, 10 µL of MTT solution was added to each well to a final concentration of 2 mg/mL. Plates were then incubated for a further 4 h. After incubation, the MTT solution was removed and 150 µL of DMSO was added to each well for coloration. The plates were shaken vigorously for 10 min at room temperature to ensure complete solubilization. The optical density (OD) was read on a microplate reader (ELx800, BioTek, Highland Park, Winooski, VT, USA) at a wavelength of 492 nm and the data were subsequently analyzed. The percentage of cell growth inhibition was calculated from the following equation: Inhibitory rate (%) = [(1 − (ODtreated-ODblank)/(ODcontrol-ODblank)] × 100.(1)

[6] = MTT antiproliferative assay, BEL-7402; type: cell-based, human; settings: human, BEL-7402 liver cancer cells versus normal L02 cells; BEL-7402 vs L02
Outline: as §1

BEL-7402 cells = experiment: MTT antiproliferative assay, BEL-7402; type: cell-based, human
Outline: as §1

[7] = IC50 on normal cells (L02)/IC50 on cancer cells

## Cc1ccc(-n2cc(CNC(=O)COC(=O)[C@]3(C)CCC[C@@]4(C)[C@@H]5CC[C@@]6(C)C[C@]5(CC[C@@H]43)CC6=O)nn2)cc1 [Compound 5d, 2-oxo-2-(((1-(p-tolyl)-1H-1,2,3-triazol-4-yl)methyl)amino)ethyl(4R,4aS,6aR,9S,11aR,11bS)-4,9,11b-trimethyl-8-oxotetradecahydro-6a,9-methanocyclohepta[a]naphthalene-4-carboxylate]
HCT-116 cells [1]
  inhibition at 15 µM: 84%
HCT-116 cells [2]; 5 μM
  percentage of total apoptotic cells (UR + LR): 7.67%
HCT-116 cells [2]; 15 μM
  percentage of total apoptotic cells (UR + LR): 24.94%
HCT-116 cells [2]; 15 μM, control 8.84%
  dead cells (UL): 49.22%
HCT-116 cells [3]; 5 μM
  proportion of cells in the S phase: 25.70%
  proportion of cells in the G1 phase: 51.67%
HCT-116 cells [3]; 15 μM
  proportion of cells in the S phase: 42.31%
  proportion of cells in the G1 phase: 41.32%
[4]
  selectivity ratio at 48 h: 38.2
[5]
  selectivity ratio at 48 h: 22
HepG2 cells; Homo sapiens, HepG2, 100 μM, 48 h, MTT, mean ± SD, n=3, read-out: % Growth Inhibition at 100 μM HepG2
  inhibition at 100 µM: 82.8 ± 0.86%
HepG2 cells; Homo sapiens, HepG2, 48 h, MTT, mean ± SD, n=3
  IC50: 8.92 ± 0.44 µM
HepG2 cells; [7]
  Selectivity Index HepG2: 18.05
HepG2 cells; against HepG2 cells
  fold more active than 5-FU: 2.6 fold
L02 cells; normal cell line, Table 3, read-out: (IC50, μM) L02
  IC50: 161 ± 1.96 µM
L02 cells; normal liver cells, 48 h, MTT, Table 2, read-out: IC50 Values (μM) L02
  IC50: > 100 µM
[6]
  selectivity ratio at 48 h: 11.2
BEL-7402 cells; Homo sapiens, Bel-7402, 100 μM, 48 h, MTT, mean ± SD, n=3, read-out: % Growth Inhibition at 100 μM BEL-7402
  inhibition at 100 µM: 86.5 ± 0.87%
BEL-7402 cells; Homo sapiens, Bel-7402, 48 h, MTT, mean ± SD, n=3
  IC50: 15.9 ± 0.41 µM
BEL-7402 cells; [7]
  Selectivity Index BEL-7402: 10.12
BEL-7402 cells; against BEL-7402 cells
  fold more active than 5-FU: 1.3 fold

From PMC6337650 (Molecules, 2018)
